Assay results reported in patent publication US10004713B2 (SICHUAN JIUZHANG BIOLOGICAL SCIENCE AND TECHNOLOGY CO., LTD, priority 2014, dated 2018).

What was measured:
[1] = tested on: human brain glioma; assay: Inhibitory effect of chlorogenic acid on transplanted glioma in mice (tumor weight); format: in vivo; conditions: 15 d; for Tumor weight: x ± s
Experimental: (1) Model establishment 50 mice were divided into 5 groups, 10 mice for each group. The solution of brain glioblastoma cell lines was suitably diluted, and inoculated in cortex of left temporal lobe of mice in five groups, respectively.
(2) Administration and intervention After inoculated for 24 h, five groups of mice were administrated by intraperitoneal injection. […] (3) Measuring inhibitory rate On the last day, administration was ceased, and all mice were sacrificed. Mice were dissected, and tissue of tumor was removed and weighed. Inhibitory Rate=(the Mean Tumor Weight of Control Group−the Mean Tumor Weight of Treatment Group)/the Mean Tumor Weight of Control Group×100%. (4) Statistical method The data were presented as mean±standard deviation (x±s), and statistical analysis was performed using SPSS15.0 software, and p<0.05 was considered to be a statistically significant difference. 3. Results

[2] = tested on: C6 glioma stem cells; assay: In vitro inhibitory effect against C6 glioma stem cells by MTT method; format: cell-based, rat; conditions: 48 h; for OD values 1: replicate 1; for OD values 2: replicate 2; for OD values 3: replicate 3
Experimental: (§1) 3. Cell line: C6 rat glioma cell lines for experiment is provided by Key Laboratory of Transplant Engineering and Immunology, Ministry of health, West China Hospital, Sichuan University.
(1) C6 cells were seeded in traditional serum medium and sub-cultured in culture bottle. Cells in exponential phase of growth were washed with PBS solution, digested with 0.25% trypsin, and pipetted by self-made pasteur pipette, to form single cells. Cells were resuspended in SFM, stained with trypan blue, and counted. Cells were seeded in culture bottle with a bottom area of 25 cm^2 at a concentration of 1×10^5/well, and placed in an incubator at 37° C. with 5% CO2 and saturated humidity for culture.
The medium was sucked out and centrifuged before half of old medium was removed, then centrifuged at 800 rpm/min for 5 min. The supernatant was discarded. Cells are resuspended in SFM, and gentle pipette with self-made pasteur pipette was repeated, for dissociating cell dumps into single cells. In a ratio of 1:2 or 1:3, cells were seeded in culture bottles with a bottom area of 25 cm^2, and diluted with SFM to 6 ml; alternatively, at the same concentration, cells were seeded in 6 well plate. To each well, was added 2.5 ml SFM, and continued culturing in an incubator at 37° C. with 5% CO2 and saturated humidity.
(1) Cells, growing in serum-containing medium and serum-free medium and presenting exponential growth phase, were taken out, and digested with pancreatin, to form single cells. Tumor cells were still seeded in serum-containing medium, while tumor stem cells were seeded in serum-free medium. Their concentrations were both adjusted to 2.0×10^5/ml, and cells were seeded in 96 well plate, 100 μl for each well. […] Culture was carried out in an incubator at 37° C. with 5% CO2 and saturated humidity for one night. When seeding in 96 well plate, peripheral wells were not used to avoid the edge effect.
(§2) (2) Next day after inoculation, cells attached before administration was carried out and static culture was kept for 48 h.
(§3) (3) Wells for normal control group of tumor cells were included, and the wells were not treated with drug, and only equal amount (100 μl) of complete medium was added. Experiment on normal control group was performed, together with above three groups.
(§4) (4) The culture was continued under 5% CO2 at 37° C., and after culturing for 48 h, cells were placed under inverted microscope for observation and taking a picture.
(§5) (5) On sterile bench board, 20 μL 0.5% MTT was added to each well, and the culture was continued for 4 h. At 37° C., the culture was stood for overnight (same time for each group), then OD values were tested using microplate reader, while the absorbance of each well was measured at […].
(§6) (6) Calculating inhibitory rate of cell growth Formula: Inhibitory rate of cell growth IR (%)=1−(OD value of cells in experimental group/OD value of cells in control group)×100%. (III) Statistical Analysis

[3] = tested on: C6 glioma cells; assay: In vitro inhibitory effect against C6 glioma cells by MTT method; format: cell-based, rat; conditions: 48 h; for OD values 1: replicate 1; for OD values 2: replicate 2; for OD values 3: replicate 3
Experimental: as §1
(1) Cells, growing in serum-containing medium and serum-free medium and presenting exponential growth phase, were taken out, and digested with pancreatin, to form single cells. Tumor cells were still seeded in serum-containing medium, while tumor stem cells were seeded in serum-free medium. Their concentrations were both adjusted to 2.0×10^5/ml, and cells were seeded in 96 well plate, 100 μl for each well. Amongst, four groups were experimental groups, and one group was negative control; the medium without cells was used as blank control, and each group had five repeated wells. Culture was carried out in an incubator at 37° C. with 5% CO2 and saturated humidity for one night. When seeding in 96 well plate, peripheral wells were not used to avoid the edge effect.
as §2, §3, §4, §5, §6

[4] = tested on: human brain oligodendroglioma cells; assay: Inhibitory effect of chlorogenic acid on proliferation of primary culture human brain oligodendroglioma cells (MTT method / WST-1); format: cell-based; conditions: 48 h
[5] = Rattus norvegicus, 16 μg/ml, read-out: Inhibitory rate (%)
[6] = Rattus norvegicus, 32 μg/ml, read-out: Inhibitory rate (%)
[7] = Rattus norvegicus, 64 μg/ml, read-out: Inhibitory rate (%)
[8] = Rattus norvegicus, 128 μg/ml, read-out: Inhibitory rate (%)
[9] = High dose 40 mg/kg intraperitoneal
[10] = Low dose 10 mg/kg intraperitoneal

CC(=O)O[C@@]12CO[C@@H]1C[C@H](O)[C@@]1(C)C(=O)[C@H](O)C3=C(C)[C@@H](OC(=O)[C@H](O)[C@@H](NC(=O)OC(C)(C)C)c4ccccc4)C[C@@](O)([C@@H](OC(=O)c4ccccc4)[C@H]21)C3(C)C [Positive control group, docetaxel, reference compound]
Inhibitory rate (%) ([1]; 5 mg/kg intraperitoneal): 73.3%
Tumor weight ([1]; 5 mg/kg intraperitoneal): 0.389 ± 0.305 g

O=C(/C=C/c1ccc(O)c(O)c1)O[C@@H]1C[C@](O)(C(=O)O)C[C@@H](O)[C@H]1O [chlorogenic acid]
OD values mean ([2]; 16 μg/ml): 1.715
OD values 1 ([2]; 16 μg/ml): 1.713
OD values 2 ([2]; 16 μg/ml): 1.700
OD values 3 ([2]; 16 μg/ml): 1.731
OD values mean ([2]; 32 μg/ml): 1.634
OD values 1 ([2]; 32 μg/ml): 1.533
OD values 2 ([2]; 32 μg/ml): 1.739
OD values 3 ([2]; 32 μg/ml): 1.631
OD values mean ([2]; 64 μg/ml): 1.378
OD values 1 ([2]; 64 μg/ml): 1.367
OD values 2 ([2]; 64 μg/ml): 1.358
OD values 3 ([2]; 64 μg/ml): 1.410
OD values mean ([2]; 128 μg/ml): 1.223
OD values 2 ([2]; 128 μg/ml): 1.200
inhibition at 16 µg/mL [2, 5]: 23.2%
inhibition at 32 µg/mL [2, 6]: 26.8%
inhibition at 64 µg/mL [2, 7]: 38.2%
inhibition at 128 µg/mL [2, 8]: 45.2%
Inhibitory rate (%) [1, 9]: 60.58%
Tumor weight [1, 9]: 0.529 ± 0.168 g
Inhibitory rate (%) [1, 10]: 48.51%
Tumor weight [1, 10]: 0.690 ± 0.188 g
Inhibitory rate (%) ([1]; Middle dose 20 mg/kg intraperitoneal): 69.92%
OD values mean ([3]; 16 μg/ml): 1.515
OD values 1 ([3]; 16 μg/ml): 1.640
OD values 2 ([3]; 16 μg/ml): 1.553
OD values 3 ([3]; 16 μg/ml): 1.351
OD values mean ([3]; 32 μg/ml): 1.472
OD values 1 ([3]; 32 μg/ml): 1.558
OD values 2 ([3]; 32 μg/ml): 1.573
OD values 3 ([3]; 32 μg/ml): 1.286
OD values mean ([3]; 64 μg/ml): 1.326
OD values 1 ([3]; 64 μg/ml): 1.314
OD values 2 ([3]; 64 μg/ml): 1.247
OD values 3 ([3]; 64 μg/ml): 1.417
OD values mean ([3]; 128 μg/ml): 1.028
OD values 1 ([3]; 128 μg/ml): 1.021
OD values 2 ([3]; 128 μg/ml): 1.023
OD values 3 ([3]; 128 μg/ml): 1.041
inhibition at 16 µg/mL [3, 5]: 32.1%
inhibition at 32 µg/mL [3, 6]: 34%
inhibition at 64 µg/mL [3, 7]: 40.6%
inhibition at 128 µg/mL [3, 8]: 53.9%
Cellular morphology under inverted microscope ([4]; compared with normal control group): obvious decrease of cell numbers
inhibition at 32 µg/mL ([4]; Homo sapiens, 32 μg/ml, read-out: Inhibitory rate (%)): 39.9%
inhibition at 64 µg/mL ([4]; Homo sapiens, 64 μg/ml, read-out: Inhibitory rate (%)): 44.9%
inhibition at 128 µg/mL ([4]; Homo sapiens, 128 μg/ml, read-out: Inhibitory rate (%)): 60.4%
